# Results as given in patent publication US20110262556A1, “SILVER/WATER, SILVER GELS AND SILVER-BASED COMPOSITIONS; AND METHODS FOR MAKING AND USING THE SAME” (AMERICAN SILVER, LLC, priority 2005, published 2011).
# “And” between values parts separate entries of the source, which are not always exact repeats. Identical values can stand only once. Like-named read-outs stand apart in the source and are kept apart here.
# What was measured:
# [1] = target: Moloney murine leukemia virus reverse transcriptase (MoMuLV) (Moloney murine leukemia virus, UniProt P03355); assay: Reverse transcriptase inhibition; format: biochemical; details: 37° C., 24 hours; AZT control at 0.625 microgram/ml
# Experimental: A commercial viral enzyme preparation of Moloney murine leukemia virus reverse transcriptase (MoMuLV) having Poly(A)dT (primer for RT) was used. […] of the MoMuLV preparation was combined with a mixture of dATP, dGTP, dCTP and [^3H]dTTP nucleotides.
# This mixture was combined with 3 ml of the inhibitor to be tested, and the resultant mixture was incubated at 37° C. for 24 hours.
# A negative control experiment was performed in which phosphate buffer saline (PBS, 3 ml) was used instead of the inhibitor.
# A positive control experiment was performed in which a known reverse transcriptase inhibitor (3 ml of AZT at a concentration 0.625 microgram/ml) was used instead of the tested inhibitor.
# The reaction was stopped by adding 25 ml EDTA and 25 ml TCA. The reaction mixture was then spotted on ionic paper (DEAE paper). The paper was washed three times with TCA and then with ethyl alcohol. The filter paper was air dried and put in a scintillation vial with a scintillation cocktail. Radioactivity was measured by a liquid scintillation counter (Blue Star).
# MRSA clinical isolate = assay: MIC, macrodilution broth
# S.typhi = assay: Zone of inhibition, agar well; details: antibiotic amount (5-200 mcg)
# [2] = system: Pseudomonas aeruginosa MDR clinical isolate (sputum); assay: Antibiotic sensitivity, Kirby Bauer; details: for Zone size (mm): Ps., Kirby-Bauer antibiotic disc; for resistance of isolate: gram-negative isolate Pseudomonas
# [3] = system: MRSA clinical isolate (pus); assay: Antibiotic sensitivity, Kirby Bauer; details: for Zone size (mm): Kirby-Bauer antibiotic disc
# [4] = system: Escherichia coli MDR clinical isolate (stool); assay: Antibiotic sensitivity, Kirby Bauer; details: for Zone size (mm): E.c, Kirby-Bauer antibiotic disc
# E. coil = assay: Zone of inhibition, agar well; details: E.coli; antibiotic amount (5-200 mcg)
# Ps. Aeruginosa = assay: Zone of inhibition, agar well; details: antibiotic amount (5-200 mcg)
# B. subtilis = assay: Zone of inhibition, agar well; details: antibiotic amount (1-200 mcg)
# MRSA 1 = assay: Zone of inhibition, agar well; details: antibiotic amount (1-200 mcg)
# S. aureus ATCC 6538 P = assay: Zone of inhibition, agar well; details: antibiotic amount (1-200 mcg)
# MRSA 2 = assay: Zone of inhibition, agar well; details: antibiotic amount (1-200 mcg)
# S. boydii = assay: MIC/MBC broth microdilution; format: cell-based, Shigella boydii; details: Shigella boydii
# E. cloacae = assay: MIC/MBC broth microdilution; format: cell-based; details: Enterobacter cloacae
# E. aerogenes = assay: MIC/MBC broth microdilution; format: cell-based, Enterobacter aerogenes; details: Klebsiella aerogenes; E. aerogenes; read-out: MIC
# S. typhimurium = assay: MIC/MBC broth microdilution; format: cell-based; details: Salmonella enterica, TYPHIMURIUM
# K. oxytoca = assay: MIC/MBC broth microdilution; format: cell-based; details: Klebsiella oxytoca
# S. pyogenes = assay: MIC/MBC broth microdilution; format: cell-based, Streptococcus pyogenes; details: Streptococcus pyogenes
# P. aeruginosa = assay: MIC/MBC broth microdilution; format: cell-based, Pseudomonas aeruginosa; details: Pseudomonas aeruginosa
# K. pneumoniae [5] = assay: MIC/MBC broth microdilution; format: cell-based, Klebsiella pneumoniae; details: Klebsiella pneumoniae
# S. aureus = assay: MIC/MBC broth microdilution; format: cell-based, Staphylococcus aureus; details: Staphylococcus aureus
# E. coli = assay: MIC/MBC broth microdilution; format: cell-based, Escherichia coli; details: Escherichia coli
# S. mutans = assay: MIC/MBC broth microdilution; format: cell-based, Streptococcus mutans; details: Streptococcus mutans
# S. pneumoniae = assay: MIC/MBC broth microdilution; format: cell-based; details: Streptococcus pneumoniae
# S arizona = assay: MIC/MBC broth microdilution; format: cell-based, Salmonella arizona; details: Salmonella
# S gordonii = assay: MIC/MBC broth microdilution; format: cell-based, Streptococcus gordonii; details: Streptococcus gordonii
# S. faecalis = assay: MIC/MBC broth microdilution; format: cell-based, Streptococcus faecalis; details: Enterococcus faecalis
# Pseudomonas culture = system: Pseudomonas culture
# Experimental: (§1) Phenol Resistance. Five-one ml aliquots of each dilution of the test phenol were placed into sterile test tubes and allowed to equilibrate in a 20±2° C. water bath. At 30 second intervals, 0.5 ml of each challenge culture was added to the appropriate dilutions of phenol, agitated, and replaced into the water bath: After the appropriate exposure times of 5, 10, and 15 minutes, a loopful of suspension was removed from the assay tubes and transferred to tubes of letheen broth (LETH). The tubes of LETH were incubated at 37±2° C. for 2 days.
# Staphylococcus culture = system: Staphylococcus culture
# Experimental: as §1
# Salmonella culture = details: 5, 10 or 15 min
# Experimental: as §1
# [6] = system: Mycobacterium bovis BCG (TMC 1028); format: cell-based
# K. pneumoniae [7] = assay: Zone of inhibition, agar well; details: antibiotic amount (5-200 mcg)
compound,measurement,setting,value
"Cc1cn([C@H]2C[C@H](N=[N+]=[N-])[C@@H](CO)O2)c(=O)[nH]c1=O [AZT, zidovudine]",% Inhibition (reverse transcriptase),[1],31.33% and 18.06%
NCC[C@H](O)C(=O)N[C@@H]1C[C@H](N)[C@@H](O[C@H]2O[C@H](CN)[C@@H](O)[C@H](O)[C@H]2O)[C@H](O)[C@H]1O[C@H]1O[C@H](CO)[C@@H](O)[C@H](N)[C@H]1O [Amikacin],Growth,MRSA clinical isolate; Conc. 0.2 mcg/ml,+
same,Growth,MRSA clinical isolate; Conc. 0.4 mcg/ml,+
same,Growth,MRSA clinical isolate; Conc. 0.6 mcg/ml,+
same,Growth,MRSA clinical isolate; Conc. 0.8 mcg/ml,−
same,Growth,MRSA clinical isolate; Conc. 1 mcg/ml,−
same,Growth,MRSA clinical isolate; Conc. 2 mcg/ml,−
same,Growth,MRSA clinical isolate; Conc. 3 mcg/ml,−
same,Growth,MRSA clinical isolate; Conc. 4 mcg/ml,−
same,Growth,MRSA clinical isolate; Conc. 5 mcg/ml,−
same,MIC,"MRSA clinical isolate; Staphylococcus aureus, Nutrient Broth",0.8 µg/mL
same,"zone of inhibition, antibiotics",S.typhi,Clear
same,Zone size (mm),[2],9 mm
same,resistance of isolate,[2],resistant
same,Zone size (mm),[3],22 mm
same,Zone size (mm),[4],20 mm
same,"zone of inhibition, antibiotics",E. coil,Clear
CO/N=C(\C(=O)N[C@@H]1C(=O)N2C(C(=O)O)=CCS[C@H]12)c1csc(N)n1 [Ceftizoxime],"zone of inhibition, antibiotics",S.typhi,15 mm
same,"zone of inhibition, antibiotics",E. coil,18 mm
same,"zone of inhibition, antibiotics",Ps. Aeruginosa,No inhibition
CC1=C(C(=O)O)N2C(=O)[C@@H](NC(=O)[C@H](N)c3ccccc3)[C@H]2SC1 [Cephalexin],"zone of inhibition, antibiotics",B. subtilis,Clear
same,"zone of inhibition, antibiotics",MRSA 1,1.0 mm
same,"zone of inhibition, antibiotics",S. aureus ATCC 6538 P,Clear
same,"zone of inhibition, antibiotics",MRSA 2,0.8 mm
O=C(N[C@H](CO)[C@H](O)c1ccc([N+](=O)[O-])cc1)C(Cl)Cl [Chloramphenicol],"zone of inhibition, antibiotics",S.typhi,23 mm
same,"zone of inhibition, antibiotics",E. coil,22 mm
same,"zone of inhibition, antibiotics",Ps. Aeruginosa,No inhibition
CC[C@H]1OC(=O)[C@H](C)[C@@H](O[C@H]2C[C@@](C)(OC)[C@@H](O)[C@H](C)O2)[C@H](C)[C@@H](O[C@@H]2O[C@H](C)C[C@H](N(C)C)[C@H]2O)[C@](C)(O)C[C@@H](C)/C(=N\OCOCCOC)[C@H](C)[C@@H](O)[C@]1(C)O [Roxythromycin],"zone of inhibition, antibiotics",B. subtilis,20 mm
same,"zone of inhibition, antibiotics",MRSA 1,1.0 mm
same,"zone of inhibition, antibiotics",S. aureus ATCC 6538 P,Clear
same,"zone of inhibition, antibiotics",MRSA 2,12 mm
CN(C)[C@@H]1C(O)=C(C(N)=O)C(=O)[C@@]2(O)C(O)=C3C(=O)c4c(O)cccc4[C@@](C)(O)[C@H]3C[C@@H]12 [Tetracycline],"zone of inhibition, antibiotics",S.typhi,16 mm
same,MBC,S. boydii,> 5 µg/mL
same,MBC,E. cloacae,> 5 µg/mL
same,MIC,E. cloacae; read-out: MIC,1.67 µg/mL
same,MIC,E. aerogenes,> 5 µg/mL
same,MBC,S. typhimurium,> 5 µg/mL
same,Zone size (mm),[3],27 mm
same,MBC,K. oxytoca,> 5 µg/mL
same,MBC,S. pyogenes; read-out: MBC,> 5 µg/mL
same,MIC,S. pyogenes; read-out: MIC,0.625 µg/mL
same,MBC,P. aeruginosa; read-out: MBC,5 µg/mL
same,MIC,P. aeruginosa; read-out: MIC,0.078 µg/mL
same,MBC,K. pneumoniae [5],> 5 µg/mL
same,MIC,K. pneumoniae [5]; read-out: MIC,2.5 µg/mL
same,MBC,S. aureus; read-out: MBC,> 5 µg/mL
same,MIC,S. aureus; read-out: MIC,0.313 µg/mL
same,MBC,E. coli; read-out: MBC,> 5 µg/mL
same,MIC,E. coli; read-out: MIC,1.67 µg/mL
same,MBC,S. mutans; read-out: MBC,> 5 µg/mL
same,MIC,S. mutans; read-out: MIC,0.625 µg/mL
same,MBC,S. pneumoniae; read-out: MBC,0.625 µg/mL
same,MIC,S. pneumoniae; read-out: MIC,0.078 µg/mL
same,MBC,S arizona; read-out: MBC,> 5 µg/mL
same,MIC,S arizona; read-out: MIC,0.625 µg/mL
same,MBC,S gordonii; read-out: MBC,0.625 µg/mL
same,MIC,S gordonii; read-out: MIC,0.156 µg/mL
same,"zone of inhibition, antibiotics",E. coil,19 mm
same,MBC,S. faecalis; read-out: MBC,> 5 µg/mL
same,MIC,S. faecalis; read-out: MIC,0.313 µg/mL
same,"zone of inhibition, antibiotics",S. aureus ATCC 6538 P,34 mm
same,"zone of inhibition, antibiotics",MRSA 2,0.7 mm
same,"zone of inhibition, antibiotics",Ps. Aeruginosa,No inhibition
CC(C)(O/N=C(\C(=O)N[C@@H]1C(=O)N2C(C(=O)[O-])=C(C[n+]3ccccc3)CS[C@H]12)c1csc(N)n1)C(=O)O [ceftazidime],Zone size (mm),[2],16 mm
same,resistance of isolate,[2],resistance
same,resistance of isolate,[3],resistant
same,Zone size (mm),[4],10 mm
same,resistance of isolate,[4]; gram-negative isolate E. coli,resistance
Oc1ccccc1 [phenol],growth after phenol treatment,"Pseudomonas culture; 1:80 phenol, 5 or 10 min",showed growth
same,growth after phenol treatment,"Pseudomonas culture; 1:80 phenol, 15 min",no growth
same,growth after phenol treatment,"Pseudomonas culture; 1:90 phenol, 5, 10 or 15 min",showed growth
same,growth after phenol treatment,"Staphylococcus culture; 1:60 phenol, 5 or 10 min",showed growth
same,growth after phenol treatment,"Staphylococcus culture; 1:60 phenol, 15 min",no growth
same,growth after phenol treatment,"Staphylococcus culture; 1:70 phenol, 5, 10 or 15 min",showed growth
same,growth after phenol treatment,Salmonella culture; 1:90 phenol,no growth
same,growth after phenol treatment,Salmonella culture; 1:100 phenol,showed growth
same,log reduction,[6],~1.81
Co-Trimoxazole,"zone of inhibition, antibiotics",S.typhi,27 mm
same,"zone of inhibition, antibiotics",K. pneumoniae [7],19 mm
same,"zone of inhibition, antibiotics",B. subtilis,15 mm
same,"zone of inhibition, antibiotics",E. coil,24 mm
same,"zone of inhibition, antibiotics",S. aureus ATCC 6538 P,Clear
same,"zone of inhibition, antibiotics",Ps. Aeruginosa,Clear
Gentamycin,"zone of inhibition, antibiotics",S.typhi,Clear
same,"zone of inhibition, antibiotics",K. pneumoniae [7],17 mm
same,Zone size (mm),[4],19 mm
same,"zone of inhibition, antibiotics",B. subtilis,18 mm
same,"zone of inhibition, antibiotics",E. coil,Clear
same,"zone of inhibition, antibiotics",S. aureus ATCC 6538 P,1Clear
same,"zone of inhibition, antibiotics",MRSA 2,11 mm
same,"zone of inhibition, antibiotics",Ps. Aeruginosa,No inhibition
